# Legend:
# [1] = tested on: Italian ryegrass; experiment: Test D preemergence; format: in vivo, Lolium multiflorum
# Description: (§1) Seeds of plant species selected from bluegrass (annual bluegrass, Poa annua), blackgrass (Alopecurus myosuroides), canarygrass (littleseed canarygrass, Phalaris minor), chickweed (common chickweed, Stellaria media), galium (catchweed bedstraw, Galium aparine), bromegrass, downy (downy bromegrass, Bromus tectorum), field poppy (Papaver rhoeas), field violet (Viola arvensis), green foxtail (Setaria viridis), deadnettle (henbit deadnettle, Lamium amplexicaule), Italian ryegrass (Lolium multiflorum), kochia (Kochia scoparia), lambsquarters (Chenopodium album), oilseed rape (Brassica napus), pigweed (Amaranthus retroflexus), chamomile (scentless chamomile, Matricaria inodora), Russian thistle (Salsola kali), speedwell (bird's-eye speedwell, Veronica persica), spring barley (Hordeum vulgare), spring wheat (Triticum aestivum), wild buckwheat (Polygonum convolvulus), wild mustard (Sinapis arvensis), wild oat (Avena fatua), wild radish (Raphanus raphanistrum), windgrass (Apera spica-venti), winter barley (Hordeum vulgare), and winter wheat (Triticum aestivum) were planted into a silt loam soil and treated preemergence with test chemicals formulated in a non-phytotoxic solvent mixture which included a surfactant.
# (§2) At the same time, these species were planted in pots containing Redi-Earth® planting medium (Scotts Company, 14111 Scottslawn Road, Marysville, Ohio 43041) comprising spaghnum peat moss, vermiculite, wetting agent and starter nutrients and treated with postemergence applications of the test chemicals formulated in the same manner. Plants ranged in height from 2 to 18 cm (1- to 4-leaf stage). Treated plants and controls were maintained in a controlled growth environment for 7 to 21 days after which time all species were compared to controls and visually evaluated. Plant response ratings, summarized in Table D, are based on a scale of 0 to 100 where 0 is no effect and 100 is complete control. A dash (-) response means no test result.
# [2] = tested on: kochia; experiment: Test D preemergence; format: in vivo, Kochia scoparia
# Description: as §1, §2
# [3] = tested on: spring wheat; experiment: Test D preemergence; format: in vivo, Triticum aestivum
# Description: as §1, §2
# [4] = tested on: winter wheat; experiment: Test D preemergence; format: in vivo, Triticum aestivum
# Description: as §1, §2
# [5] = tested on: chickweed; experiment: Test D postemergence; format: in vivo, Stellaria media
# Description: as §1, §2
# [6] = tested on: pigweed; experiment: Test D postemergence; format: in vivo, Amaranthus retroflexus
# Description: as §1, §2
# [7] = tested on: spring wheat; experiment: Test D postemergence; format: in vivo, Triticum aestivum
# Description: as §1, §2
# [8] = tested on: winter wheat; experiment: Test D postemergence; format: in vivo, Triticum aestivum
# Description: as §1, §2
# [9] = 16 g ai/ha, scale 0 (no effect) to 100 (complete control)
# [10] = 31 g ai/ha, scale 0 (no effect) to 100 (complete control)
# [11] = 31 g ai/ha, scale 0 to 100 (0 no effect, 100 complete control)
# [12] = 62 g ai/ha, scale 0 to 100 (0 no effect, 100 complete control)
# [13] = 125 g ai/ha, scale 0 to 100 (0 no effect, 100 complete control)
# [14] = 250 g ai/ha, scale 0 to 100 (0 no effect, 100 complete control)
smiles,measurement,setting,value
Clc1cnc(Oc2ccccc2-n2cc(Cl)cn2)nc1 [Compound 3],"Plant response rating, Ryegrass, Italian",[1]; [9],0
same,"Plant response rating, Ryegrass, Italian",[1]; [10],0
same,"Plant response rating, Ryegrass, Italian","[1]; 62 g ai/ha, scale 0-100",0
same,"Plant response rating, Ryegrass, Italian","[1]; 125 g ai/ha, scale 0-100",0
same,"Plant response rating, Ryegrass, Italian","[1]; 250 g ai/ha, scale 0-100",0
same,"Plant response rating, Kochia",[2]; [9],0
same,"Plant response rating, Kochia","[2]; 31 g ai/ha, scale 0-100",30
same,"Plant response rating, Kochia","[2]; 62 g ai/ha, scale 0-100",30
same,"Plant response rating, Kochia","[2]; 125 g ai/ha, scale 0-100",30
same,"Plant response rating, Kochia","[2]; 250 g ai/ha, scale 0-100",50
same,"Plant response rating, Wheat, Spring",[3]; [9],0
same,"Plant response rating, Wheat, Spring",[3]; [10],0
same,"Plant response rating, Wheat, Spring","[3]; 62 g ai/ha, scale 0-100",0
same,"Plant response rating, Wheat, Spring","[3]; 125 g ai/ha, scale 0-100",0
same,"Plant response rating, Wheat, Spring","[3]; 250 g ai/ha, scale 0-100",0
same,"Plant response rating, Wheat, Winter",[4]; [9],0
same,"Plant response rating, Wheat, Winter",[4]; [10],0
same,"Plant response rating, Wheat, Winter","[4]; 62 g ai/ha, scale 0-100",0
same,"Plant response rating, Wheat, Winter","[4]; 125 g ai/ha, scale 0-100",0
same,"Plant response rating, Wheat, Winter","[4]; 250 g ai/ha, scale 0-100",0
same,"Plant response rating, Chickweed","[5]; 16 g ai/ha, scale 0-100",40
same,"Plant response rating, Chickweed",[5]; [11],0
same,"Plant response rating, Chickweed",[5]; [12],25
same,"Plant response rating, Chickweed",[5]; [13],30
same,"Plant response rating, Chickweed",[5]; [14],40
same,"Plant response rating, Pigweed","[6]; 16 g ai/ha, scale 0-100",70
same,"Plant response rating, Pigweed",[6]; [11],70
same,"Plant response rating, Pigweed",[6]; [12],70
same,"Plant response rating, Pigweed",[6]; [13],70
same,"Plant response rating, Pigweed",[6]; [14],90
same,"Plant response rating, Wheat, Spring","[7]; 16 g ai/ha, scale 0-100",60
same,"Plant response rating, Wheat, Spring",[7]; [11],0
same,"Plant response rating, Wheat, Spring",[7]; [12],0
same,"Plant response rating, Wheat, Spring",[7]; [13],0
same,"Plant response rating, Wheat, Spring",[7]; [14],0
same,"Plant response rating, Wheat, Winter","[8]; 16 g ai/ha, scale 0-100",65
same,"Plant response rating, Wheat, Winter",[8]; [11],0
same,"Plant response rating, Wheat, Winter",[8]; [12],0
same,"Plant response rating, Wheat, Winter",[8]; [13],0
same,"Plant response rating, Wheat, Winter",[8]; [14],0
"Fc1cccc(Oc2ncc(Cl)cn2)c1-n1cc(Br)cn1 [Compound 178, 2-[2-(4-bromo-1H-pyrazol-1-yl)-3-fluorophenoxy]-5-chloropyrimidine]",pest or weed control at 16 g/ha,"[1]; Lolium multiflorum, pre-emergence, 16 g ai/ha, scale 0 (no effect) to 100 (complete control), read-out: Plant response rating, Ryegrass, Italian",0%
same,pest or weed control at 31 g/ha,"[1]; Lolium multiflorum, pre-emergence, 31 g ai/ha, scale 0 (no effect) to 100 (complete control), read-out: Plant response rating, Ryegrass, Italian",0%
same,pest or weed control at 62 g/ha,"[1]; Lolium multiflorum, pre-emergence, 62 g ai/ha, scale 0-100, read-out: Plant response rating, Ryegrass, Italian",15%
same,pest or weed control at 125 g/ha,"[1]; Lolium multiflorum, pre-emergence, 125 g ai/ha, scale 0-100, read-out: Plant response rating, Ryegrass, Italian",20%
same,pest or weed control at 16 g/ha,"[2]; Bassia scoparia, pre-emergence, 16 g ai/ha, scale 0 (no effect) to 100 (complete control), read-out: Plant response rating, Kochia",0%
same,pest or weed control at 31 g/ha,"[2]; Bassia scoparia, pre-emergence, 31 g ai/ha, scale 0-100, read-out: Plant response rating, Kochia",35%
same,pest or weed control at 62 g/ha,"[2]; Bassia scoparia, pre-emergence, 62 g ai/ha, scale 0-100, read-out: Plant response rating, Kochia",85%
same,pest or weed control at 125 g/ha,"[2]; Bassia scoparia, pre-emergence, 125 g ai/ha, scale 0-100, read-out: Plant response rating, Kochia",100%
same,pest or weed control at 16 g/ha,"[5]; Stellaria media, post-emergence, 16 g ai/ha, scale 0-100, read-out: Plant response rating, Chickweed",55%
same,pest or weed control at 31 g/ha,"[5]; Stellaria media, post-emergence, 31 g ai/ha, scale 0 to 100 (0 no effect, 100 complete control), read-out: Plant response rating, Chickweed",60%
same,pest or weed control at 62 g/ha,"[5]; Stellaria media, post-emergence, 62 g ai/ha, scale 0 to 100 (0 no effect, 100 complete control), read-out: Plant response rating, Chickweed",65%
same,pest or weed control at 125 g/ha,"[5]; Stellaria media, post-emergence, 125 g ai/ha, scale 0 to 100 (0 no effect, 100 complete control), read-out: Plant response rating, Chickweed",75%
same,pest or weed control at 16 g/ha,"[6]; Amaranthus retroflexus, post-emergence, 16 g ai/ha, scale 0-100, read-out: Plant response rating, Pigweed",75%
same,pest or weed control at 31 g/ha,"[6]; Amaranthus retroflexus, post-emergence, 31 g ai/ha, scale 0 to 100 (0 no effect, 100 complete control), read-out: Plant response rating, Pigweed",80%
same,pest or weed control at 62 g/ha,"[6]; Amaranthus retroflexus, post-emergence, 62 g ai/ha, scale 0 to 100 (0 no effect, 100 complete control), read-out: Plant response rating, Pigweed",85%
same,pest or weed control at 125 g/ha,"[6]; Amaranthus retroflexus, post-emergence, 125 g ai/ha, scale 0 to 100 (0 no effect, 100 complete control), read-out: Plant response rating, Pigweed",90%
same,plant injury at 16 g/ha,"[7]; Triticum aestivum, post-emergence, 16 g ai/ha, scale 0-100, read-out: Plant response rating, Wheat, Spring",0%
same,plant injury at 31 g/ha,"[7]; Triticum aestivum, post-emergence, 31 g ai/ha, scale 0 to 100 (0 no effect, 100 complete control), read-out: Plant response rating, Wheat, Spring",0%
same,plant injury at 62 g/ha,"[7]; Triticum aestivum, post-emergence, 62 g ai/ha, scale 0 to 100 (0 no effect, 100 complete control), read-out: Plant response rating, Wheat, Spring",0%
same,plant injury at 125 g/ha,"[7]; Triticum aestivum, post-emergence, 125 g ai/ha, scale 0 to 100 (0 no effect, 100 complete control), read-out: Plant response rating, Wheat, Spring",5%
same,plant injury at 16 g/ha,"[8]; Triticum aestivum, post-emergence, 16 g ai/ha, scale 0-100, read-out: Plant response rating, Wheat, Winter",0%
same,plant injury at 31 g/ha,"[8]; Triticum aestivum, post-emergence, 31 g ai/ha, scale 0 to 100 (0 no effect, 100 complete control), read-out: Plant response rating, Wheat, Winter",0%
same,plant injury at 62 g/ha,"[8]; Triticum aestivum, post-emergence, 62 g ai/ha, scale 0 to 100 (0 no effect, 100 complete control), read-out: Plant response rating, Wheat, Winter",0%
same,plant injury at 125 g/ha,"[8]; Triticum aestivum, post-emergence, 125 g ai/ha, scale 0 to 100 (0 no effect, 100 complete control), read-out: Plant response rating, Wheat, Winter",10%
